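Briefly, cells in 96-well plates were exposed to five compound concentrations for 48 h, and endpoints were estimated by linear interpolation. GI50 marks 50% less growth. TGI: concentration producing complete growth inhibition.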
Key:
Experiment in all cases: DTP human tumour cell line panel, 48 h
786-0 renal = tested on: 786-0 renal
A498 renal = tested on: A498 renal
A549 NSCLC = tested on: A549 NSCLC
ACHN renal = tested on: ACHN renal
BT-549 breast = tested on: BT-549 breast
CAKI-1 renal = tested on: CAKI-1 renal
CCRF-CEM leukemia = tested on: CCRF-CEM leukemia
COLO 205 colon = tested on: COLO 205 colon
DU-145 prostate = tested on: DU-145 prostate
EKVX NSCLC = tested on: EKVX NSCLC
HCC-2998 colon = tested on: HCC-2998 colon
HCT-116 colon = tested on: HCT-116 colon
HCT-15 colon = tested on: HCT-15 colon
HL-60(TB) leukemia = tested on: HL-60(TB) leukemia
HOP-62 NSCLC = tested on: HOP-62 NSCLC
HOP-92 NSCLC = tested on: HOP-92 NSCLC
HS 578T breast = tested on: HS 578T breast
HT29 colon = tested on: HT29 colon
IGROV1 ovarian = tested on: IGROV1 ovarian
K-562 leukemia = tested on: K-562 leukemia
KM12 colon = tested on: KM12 colon
LOX IMVI melanoma = tested on: LOX IMVI melanoma
M14 melanoma = tested on: M14 melanoma
MALME-3M melanoma = tested on: MALME-3M melanoma
MCF7 breast = tested on: MCF7 breast
MDA-MB-231 breast = tested on: MDA-MB-231 breast
MDA-MB-435 = tested on: MDA-MB-435
MDA-MB-468 breast = tested on: MDA-MB-468 breast
MOLT-4 leukemia = tested on: MOLT-4 leukemia
NCI-H226 lung = tested on: NCI-H226 lung
NCI-H23 lung = tested on: NCI-H23 lung
NCI-H460 lung = tested on: NCI-H460 lung
NCI-H522 lung = tested on: NCI-H522 lung
NCI/ADR-RES ovarian = tested on: NCI/ADR-RES ovarian
OVCAR-3 ovarian = tested on: OVCAR-3 ovarian
OVCAR-4 ovarian = tested on: OVCAR-4 ovarian
OVCAR-5 ovarian = tested on: OVCAR-5 ovarian
OVCAR-8 ovarian = tested on: OVCAR-8 ovarian
PC-3 prostate = tested on: PC-3 prostate
RPMI-8226 leukemia = tested on: RPMI-8226 leukemia
RXF 393 renal = tested on: RXF 393 renal
SF-268 CNS = tested on: SF-268 CNS
SF-295 CNS = tested on: SF-295 CNS
SF-539 CNS = tested on: SF-539 CNS
SK-MEL-2 melanoma = tested on: SK-MEL-2 melanoma
SK-MEL-28 melanoma = tested on: SK-MEL-28 melanoma
SK-MEL-5 melanoma = tested on: SK-MEL-5 melanoma
SK-OV-3 ovarian = tested on: SK-OV-3 ovarian
SN12C renal = tested on: SN12C renal
SNB-19 CNS = tested on: SNB-19 CNS
SNB-75 CNS = tested on: SNB-75 CNS
SR leukemia = tested on: SR leukemia
SW-620 colon = tested on: SW-620 colon
T-47D breast = tested on: T-47D breast
TK-10 renal = tested on: TK-10 renal
U251 CNS = tested on: U251 CNS
UACC-257 melanoma = tested on: UACC-257 melanoma
UACC-62 melanoma = tested on: UACC-62 melanoma
UO-31 renal = tested on: UO-31 renal

Cc1ccc(C2CC(c3ccc(NC(=S)Nc4ccccc4)cc3)=NN2c2ccc(S(N)(=O)=O)cc2)cc1 (stereo not drawn) gave a GI50 (786-0 renal) of 3.89 µM, a TGI (786-0 renal) of 22.5 µM and a GI50 (A498 renal) of 6.73 µM. For the same compound, the TGI (A498 renal) was 25.8 µM, the GI50 (A549 NSCLC) was 4.09 µM and the TGI (A549 NSCLC) was over 100 µM. The GI50 (ACHN renal) was 3.25 µM, the TGI (ACHN renal) was 11.6 µM and the GI50 (BT-549 breast) was 6.06 µM. It also gave a TGI (BT-549 breast) of 19.3 µM, a GI50 (CAKI-1 renal) of 3.12 µM and a TGI (CAKI-1 renal) of 12.7 µM. For the same compound, the GI50 (CCRF-CEM leukemia) was 3.18 µM, the TGI (CCRF-CEM leukemia) was 53.1 µM and the GI50 (COLO 205 colon) was 3.56 µM. It also gave a TGI (COLO 205 colon) of 12.3 µM, a GI50 (DU-145 prostate) of 8.22 µM and a TGI (DU-145 prostate) of 97.1 µM. The GI50 (EKVX NSCLC) was 3.75 µM, the TGI (EKVX NSCLC) was 37.3 µM and the GI50 (HCC-2998 colon) was 3.58 µM. The TGI (HCC-2998 colon) was 18.3 µM, the GI50 (HCT-116 colon) was 3.28 µM and the TGI (HCT-116 colon) was 16.9 µM. The GI50 (HCT-15 colon) was 3.05 µM, the TGI (HCT-15 colon) was 18.8 µM and the GI50 (HL-60(TB) leukemia) was 2330 nM. For the same compound, the TGI (HL-60(TB) leukemia) was 6.51 µM, the GI50 (HOP-62 NSCLC) was 8.74 µM and the TGI (HOP-62 NSCLC) was 34.2 µM. It also gave a GI50 (HOP-92 NSCLC) of 3.81 µM, a TGI (HOP-92 NSCLC) of 22 µM and a GI50 (HS 578T breast) of 8.04 µM. For the same compound, the TGI (HS 578T breast) was 48.4 µM, the GI50 (HT29 colon) was 2550 nM and the TGI (HT29 colon) was 8.75 µM. For the same compound, the GI50 (IGROV1 ovarian) was 3.44 µM, the TGI (IGROV1 ovarian) was 14.7 µM and the GI50 (K-562 leukemia) was 3.2 µM. The TGI (K-562 leukemia) was 47.6 µM, the GI50 (KM12 colon) was 4.67 µM and the TGI (KM12 colon) was 23.7 µM. The GI50 (LOX IMVI melanoma) was 4.76 µM, the TGI (LOX IMVI melanoma) was 20 µM and the GI50 (M14 melanoma) was 4.2 µM. For the same compound, the TGI (M14 melanoma) was 17.8 µM, the GI50 (MALME-3M melanoma) was 6.88 µM and the TGI (MALME-3M melanoma) was 23.6 µM. The GI50 (MCF7 breast) was 2780 nM, the TGI (MCF7 breast) was 14.2 µM and the GI50 (MDA-MB-231 breast) was 9.63 µM. The TGI (MDA-MB-231 breast) was 29.6 µM, the GI50 (MDA-MB-435) was 3.06 µM and the TGI (MDA-MB-435) was 25 µM. It also gave a GI50 (MDA-MB-468 breast) of 1810 nM, a TGI (MDA-MB-468 breast) of 5.56 µM and a GI50 (MOLT-4 leukemia) of 2620 nM. For the same compound, the TGI (MOLT-4 leukemia) was 13.2 µM, the GI50 (NCI-H226 lung) was 3.31 µM and the TGI (NCI-H226 lung) was 19.1 µM. For the same compound, the GI50 (NCI-H23 lung) was 5.79 µM, the TGI (NCI-H23 lung) was 34 µM and the GI50 (NCI-H460 lung) was 3.1 µM. The TGI (NCI-H460 lung) was 11.5 µM, the GI50 (NCI-H522 lung) was 2840 nM and the TGI (NCI-H522 lung) was 14.8 µM. It also gave a GI50 (NCI/ADR-RES ovarian) of 4.04 µM, a TGI (NCI/ADR-RES ovarian) of 49.5 µM and a GI50 (OVCAR-3 ovarian) of 3.28 µM. For the same compound, the TGI (OVCAR-3 ovarian) was 22.7 µM, the GI50 (OVCAR-4 ovarian) was 4.06 µM and the TGI (OVCAR-4 ovarian) was 33.5 µM. The GI50 (OVCAR-5 ovarian) was 4.54 µM, the TGI (OVCAR-5 ovarian) was 17.9 µM and the GI50 (OVCAR-8 ovarian) was 5.96 µM. It also gave a TGI (OVCAR-8 ovarian) of 67.8 µM, a GI50 (PC-3 prostate) of 2750 nM and a TGI (PC-3 prostate) of 14 µM. The GI50 (RPMI-8226 leukemia) was 3.45 µM, the TGI (RPMI-8226 leukemia) was over 100 µM and the GI50 (RXF 393 renal) was 2990 nM. For the same compound, the TGI (RXF 393 renal) was 12.7 µM, the GI50 (SF-268 CNS) was 4.11 µM and the TGI (SF-268 CNS) was over 100 µM. For the same compound, the GI50 (SF-295 CNS) was 3.28 µM, the TGI (SF-295 CNS) was 15.7 µM and the GI50 (SF-539 CNS) was 5.4 µM. For the same compound, the TGI (SF-539 CNS) was 19.8 µM, the GI50 (SK-MEL-2 melanoma) was 6.22 µM and the TGI (SK-MEL-2 melanoma) was 21.1 µM. It also gave a GI50 (SK-MEL-28 melanoma) of 4.69 µM, a TGI (SK-MEL-28 melanoma) of 16.4 µM and a GI50 (SK-MEL-5 melanoma) of 4.83 µM. The TGI (SK-MEL-5 melanoma) was 17.8 µM, the GI50 (SK-OV-3 ovarian) was 11 µM and the TGI (SK-OV-3 ovarian) was 32.9 µM. It also gave a GI50 (SN12C renal) of 4.23 µM, a TGI (SN12C renal) of 29.5 µM and a GI50 (SNB-19 CNS) of 4.97 µM. It also gave a TGI (SNB-19 CNS) of 23.2 µM, a GI50 (SNB-75 CNS) of 2010 nM and a TGI (SNB-75 CNS) of 14.6 µM. For the same compound, the GI50 (SR leukemia) was 3.3 µM, the TGI (SR leukemia) was 27.2 µM and the GI50 (SW-620 colon) was 3.52 µM. It also gave a TGI (SW-620 colon) of 26.6 µM, a GI50 (T-47D breast) of 3.16 µM and a TGI (T-47D breast) of 17.5 µM. For the same compound, the GI50 (TK-10 renal) was 3.09 µM, the TGI (TK-10 renal) was 17.6 µM and the GI50 (U251 CNS) was 5.29 µM. The TGI (U251 CNS) was 24.2 µM, the GI50 (UACC-257 melanoma) was 6.4 µM and the TGI (UACC-257 melanoma) was 30.9 µM. It also gave a GI50 (UACC-62 melanoma) of 3.45 µM, a TGI (UACC-62 melanoma) of 16 µM and a GI50 (UO-31 renal) of 2670 nM. The TGI (UO-31 renal) was 13.3 µM.
